Assay results published in ChEMBL document CHEMBL1201862, “PubChem BioAssay data set” (2004).
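Test compounds were applied to cells in 96-well plates for 48 hours at 5 doses. Here, GI50 denotes the concentration required for 50% inhibition of growth.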 Active and inactive are the calls of the source. Rule as the data show it: active = GI50 up to about 1.1 µM and inactive = higher.

How the values were obtained:
Test in all cases: inhibition of tumour cell growth, NCI panel, 48 h
[1] = tested on: HL-60
[2] = tested on: SF-268
[3] = tested on: TK-10
[4] = tested on: EKVX
[5] = tested on: OVCAR-3
[6] = tested on: U-251
[7] = tested on: Malme-3M
[8] = tested on: CAKI-1
[9] = tested on: SK-MEL-2
[10] = tested on: Hs-578T
[11] = tested on: OVCAR-5
[12] = tested on: SN12C
[13] = tested on: SNB-75
[14] = tested on: 786-0
[15] = tested on: MDA-MB-231
[16] = tested on: SNB-19
[17] = tested on: UACC-257
[18] = tested on: KM12
[19] = tested on: DU-145

Row | SMILES | GI50 [1] | GI50 [2] | GI50 [3] | GI50 [4] | GI50 [5] | GI50 [6] | GI50 [7] | GI50 [8] | GI50 [9] | GI50 [10] | GI50 [11] | GI50 [12] | GI50 [13] | GI50 [14] | GI50 [15] | GI50 [16] | GI50 [17] | GI50 [18] | GI50 [19]
1 | N#CS/C(C(Cl)=C(Cl)Cl)=C(/Cl)[N+](=O)[O-] | 0.219 µM (active) | 3.17 µM (inactive) | 2.23 µM (inactive) | 4.46 µM (inactive) | 1.53 µM (inactive) | 14.1 µM (inactive) | 1.58 µM (inactive) | 0.977 µM (active) | 4.52 µM (inactive) | 6.1 µM (inactive) | 1.7 µM (inactive) | 2.21 µM (inactive) | 17.4 µM (inactive) | 1.68 µM (inactive) | 3.1 µM (inactive) | 20.2 µM (inactive) | 1.75 µM (inactive) | 9.64 µM (inactive) | 13.8 µM (inactive)
2 | CC(O)C1(O)C(O)CC(OC2c3cc4c(c(O)c3[C@@H]3C[C@@]2(C)OC32C=c3cc[nH]c3=N2)C(=O)c2cccc(O)c2C4=O)OC1C (some centres not stated) | 0.598 µM (active) | 1.79 µM (inactive) | 1.71 µM (inactive) | 1.11 µM (active) | 1.08 µM (active) | 1.53 µM (inactive) | 0.938 µM (active) | 1.33 µM (inactive) | 1.6 µM (inactive) | 1.73 µM (inactive) | 3.08 µM (inactive) | 0.607 µM (active) | 1.26 µM (inactive) | 1.04 µM (active) | 1.06 µM (active) | 2.34 µM (inactive) | 1.48 µM (inactive) | 1.07 µM (active) | 1.15 µM (inactive)
3 | CC(=O)c1c2c(cc3c1CCC3)CCC2 | > 100 µM (inactive) | > 100 µM (inactive) | 49 µM (inactive) | 63.5 µM (inactive) | > 100 µM (inactive) | > 100 µM (inactive) | > 100 µM (inactive) | > 100 µM (inactive) | > 100 µM (inactive) | 76.6 µM (inactive) | > 100 µM (inactive) | > 100 µM (inactive) | > 100 µM (inactive) | > 100 µM (inactive) | > 100 µM (inactive) | > 100 µM (inactive) | > 100 µM (inactive) | > 100 µM (inactive) | > 100 µM (inactive)
4 | Nc1nc(Sc2ccc([N+](=O)[O-])cn2)c2nc[nH]c2n1 | 10.7 µM (inactive) | 4.35 µM (inactive) | 9.08 µM (inactive) | 7.53 µM (inactive) | 8.93 µM (inactive) | 15.7 µM (inactive) | 11.4 µM (inactive) | 7.13 µM (inactive) | 2.47 µM (inactive) | 15.3 µM (inactive) | 3.47 µM (inactive) | 4.74 µM (inactive) | 5.2 µM (inactive) | 5.74 µM (inactive) | 5.9 µM (inactive) | 23.8 µM (inactive) | 18 µM (inactive) | 7.38 µM (inactive) | 3.32 µM (inactive)
5 | CCC/C(Cl)=N/OC(NC(=O)OCC)(C(F)(F)F)C(F)(F)F | 17.4 µM (inactive) | 19.9 µM (inactive) | 19 µM (inactive) | 20.9 µM (inactive) | 15.8 µM (inactive) | > 100 µM (inactive) | 15.4 µM (inactive) | 20.6 µM (inactive) | > 100 µM (inactive) | 34.5 µM (inactive) | 16.4 µM (inactive) | 16.7 µM (inactive) | 82.4 µM (inactive) | 17.4 µM (inactive) | 17.6 µM (inactive) | > 100 µM (inactive) | 20.6 µM (inactive) | > 100 µM (inactive) | > 100 µM (inactive)
6 | CN(C)c1ccc(/C=c2/c3ccccc3n3c2cc(/C=C/c2ccccc2)[n+]3C)cc1 | 0.0927 µM (active) | 0.114 µM (active) | 0.393 µM (active) | 0.265 µM (active) | 0.141 µM (active) | 0.0399 µM (active) | 0.233 µM (active) | 1.28 µM (inactive) | 0.282 µM (active) | 0.0287 µM (active) | 0.502 µM (active) | 0.0841 µM (active) | 0.033 µM (active) | 0.0815 µM (active) | 0.261 µM (active) | 0.217 µM (active) | 0.339 µM (active) | 0.167 µM (active) | 0.1 µM (active)
7 | C/C(=N\NC(=S)N(C)C)c1ccccn1 | < 0.01 µM (active) | < 0.0317 µM (active) | 0.564 µM (active) | 0.0284 µM (active) | < 0.01 µM (active) | < 0.01 µM (active) | 0.219 µM (active) | 0.186 µM (active) | 0.139 µM (active) | 3.7 µM (inactive) | 0.0373 µM (active) | 0.057 µM (active) | 0.486 µM (active) | < 0.0118 µM (active) | < 0.01 µM (active) | 1.47 µM (inactive) | < 0.01 µM (active) | 0.0307 µM (active) | 0.161 µM (active)
8 | Nc1ccc(-c2nc3cc(F)ccc3s2)cc1Cl | 3.64 µM (inactive) | 25.5 µM (inactive) | 0.0357 µM (active) | 1.17 µM (inactive) | 0.049 µM (active) | 20 µM (inactive) | 20.1 µM (inactive) | 8.67 µM (inactive) | 41.1 µM (inactive) | 27.1 µM (inactive) | 0.0219 µM (active) | 23.3 µM (inactive) | 20.5 µM (inactive) | 25.8 µM (inactive) | 5.08 µM (inactive) | 32.4 µM (inactive) | 72.6 µM (inactive) | 8.99 µM (inactive) | 63.2 µM (inactive)
